According to US11802120B2, “Fused cyclic urea derivatives as CRHR2 antagonist” (RaQualia Pharma Inc., priority 2018, dated 2023):

target: T1, human CRHR2-alpha (Homo sapiens, UniProt Q13324); experiment: cAMP functional assay for human CRHR2 (LANCE Ultra cAMP, TR-FRET); format: cell-based; details: CHO-K1 cells expressing human CRHR2-alpha, agonist human urocortin2 at EC80, cAMP; read-out: IC50 against CRHR2
T1 sequence (Q13324 1-411): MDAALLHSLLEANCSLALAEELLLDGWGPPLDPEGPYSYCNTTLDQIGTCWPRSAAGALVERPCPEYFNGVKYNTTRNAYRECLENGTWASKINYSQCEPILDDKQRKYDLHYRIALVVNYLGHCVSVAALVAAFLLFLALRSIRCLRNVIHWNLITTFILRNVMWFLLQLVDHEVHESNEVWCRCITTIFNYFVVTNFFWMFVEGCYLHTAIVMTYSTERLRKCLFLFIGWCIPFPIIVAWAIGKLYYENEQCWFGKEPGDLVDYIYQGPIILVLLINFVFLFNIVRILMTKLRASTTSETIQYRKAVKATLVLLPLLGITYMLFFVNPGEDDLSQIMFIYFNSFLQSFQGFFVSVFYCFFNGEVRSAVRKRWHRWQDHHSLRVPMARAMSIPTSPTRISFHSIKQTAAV
Outline: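 Antagonism measured in CHO-K1 cells stably expressing the receptor, serum-starved 7 h then cryopreserved. Thawed cells in HBSS buffer with 0.1% BSA, 0.5 mM IBMX, 5 mM Hepes pH 7.4 were preincubated with compound 30 min at 25° C, then stimulated 30 min with EC80 agonist: urocortin2 for CRHR2, CRF for CRHR1.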

IC50, < 300 nM:
CNC(=O)c1ccc(-n2c(=O)n(C[C@H]3CC[C@H](NC(=O)c4cc(Cl)cnc4C)CC3)c3cccc(F)c32)cn1 [Example 235, 5-(3-(((1r,4r)-4-(5-chloro-2-methylnicotinamido)cyclo-hexyl)methyl)-7-fluoro-2-oxo-2,3-dihydro-1H-benzo[d]imidazol-1-yl)-N-methylpicolinamide]
COc1ccc(-n2c(=O)n(C[C@H]3CC[C@H](NC(=O)c4cc(Cl)cnc4C)CC3)c3ccccc32)cc1OC [Example 44, 5-chloro-N-((1r,4r)-4-((3-(3,4-dimethoxyphenyl)-2-oxo-2,3-dihydro-1H-benzo[d]imidazol-1-yl)methyl)cyclohexyl)-2-methylnicotinamide]
O=C(N[C@H]1CC[C@H](Cn2c(=O)n(-c3ccc(N4CCC4=O)nc3)c3ccccc32)CC1)c1cc(Cl)cnc1C(F)F [Example 501, 5-chloro-2-(difluoromethyl)-N-((1r,4r)-4-((2-oxo-3-(6-(2-oxoazetidin-1-yl)pyridin-3-yl)-2,3-dihydro-1H-benzo [d]imidazol-1-yl)methyl)cyclo-hexyl)nicotinamide]
Cc1ncc(Cl)cc1C(=O)N[C@H]1CC[C@H](Cn2c(=O)n(-c3cnc4c(c3)CCN4C)c3ccccc32)CC1 [Example 154, 5-chloro-2-methyl-N-((1r,4r)-4-((3-(1-methyl-2,3-dihydro-1H-pyrrolo[2,3-b]pyridin-5-yl)-2-oxo-2,3-dihydro-1H-benzo[d]imidazol-1-yl)methyl)cyclohexyl)nicotinamide]
COc1ccc(Cl)c(-n2c(=O)n(C[C@H]3CC[C@H](NC(=O)c4cc(Cl)cnc4C(F)F)CC3)c3cccnc32)c1 [Example 453, 5-chloro-N-((1r,4r)-4-((3-(2-chloro-5-methoxyphenyl)-2-oxo-2,3-dihydro-1H-imidazo [4,5-b]pyridin-1-yl)methyl)cyclohexyl)-2-(difluoromethyl) nicotinamide]
Cc1cc2cc(-n3c(=O)n(C[C@H]4CC[C@H](NC(=O)c5cc(Cl)cnc5C(F)F)CC4)c4ccccc43)cnc2[nH]1 [Example 673, 5-chloro-2-(difluoromethyl)-N-((1r,4r)-4-((3-(2-methyl-1H-pyrrolo[2,3-b]pyridin-5-yl)-2-oxo-2,3-dihydro-1H-benzo[d]imidazol-1-yl)methyl)cyclohexyl)nicotinamide]
Cc1ncc(Cl)cc1C(=O)N[C@H]1CC[C@H](Cn2c(=O)n(-c3ccc(C(=O)Nc4cccnn4)nc3)c3ccccc32)CC1 [Example 175, 5-(3-(((1r,4r)-4-(5-chloro-2-methylnicotinamido)cyclo-hexyl)methyl)-2-oxo-2,3-dihydro-1H-benzo[d]imidazol-1-yl)-N-(pyridazin-3-yl) picolinamide]
Cc1ncc(Cl)cc1C(=O)N[C@H]1CC[C@H](Cn2c(=O)n(-c3ccnc(N4CCN(C)C4=O)c3)c3ccccc32)CC1 [Example 690, 5-chloro-2-methyl-N-((1r,4r)-4-((3-(2-(3-methyl-2-oxoimi-dazolidin-1-yl)pyridin-4-yl)-2-oxo-2,3-dihydro-1H-benzo [d]imidazol-1-yl)methyl)cyclo-hexyl)nicotinamide]
Cc1ncc(Cl)cc1C(=O)N[C@H]1CC[C@H](Cn2c(=O)n(-c3ccccc3[N+](=O)[O-])c3ccccc32)CC1 [Example 233, 5-chloro-2-methyl-N-((1r,4r)-4-((3-(2-nitrophenyl)-2-oxo-2,3-dihydro-1H-benzo[d]imidazol-1-yl)methyl)cyclo-hexyl)nicotinamide]
CC(=O)c1ccc(-n2c(=O)n(C[C@H]3CC[C@H](NC(=O)c4cc(Cl)cnc4C(F)F)CC3)c3cccnc32)cc1 [Example 400, N-((1r,4r)-4-((3-(4-acetylphenyl)-2-oxo-2,3-dihydro-1H-imidazo [4,5-b]pyridin-1-yl)methyl)cyclo-hexyl)-5-chloro-2-(difluoro-methyl)nicotinamide]
